Results published in US20260097126A1, “PHARMACEUTICAL FORMULATIONS AND METHODS FOR THE TREATMENT OF METABOLIC AND LIVER DISORDERS” (priority 2022, published 2026).
Numbered stars: 1 amine (or outer) side, 2 acyl side, 3 side chain; on linkers, the order of the positions; unused ones are H or OH. Square brackets hold non-standard residues; d marks the D form. Side chains are listed from the residue outwards. Peptide text beside a SMILES is read from it. * marks the point of attachment. Nonadecanoyl(19-PO3H2) = O=C(CCCCCCCCCCCCCCCCCCP(=O)(O)O)*; γGlu = O=C(O)[C@H](CCC(=O)[*:2])N[*:1]; AEEA = NCCOCCOCC(=O)O; Aib = CC(C)(N)C(=O)O

Columns and labels:
[1] = Pharmacokinetic study of Compounds 4, 14, 15, 17 in monkeys; details: cynomolgus monkey, plasma, sc, 0.2 mg/kg
Description: The formulations were administered to cynomolgus monkeys at a dose of 0.2 mg/kg. Plasma concentration versus time data was collected and pharmacokinetic values determined.

[2] = target: T1, GLP-1 receptor (Homo sapiens, UniProt P43220); experiment: TagLite binding assay, GLP-1 receptor; details: read-out: GLP-1 receptor IC 50
[3] = target: T2, GIP receptor (Homo sapiens, UniProt P48546); experiment: TagLite binding assay, GIP receptor; details: read-out: GIP receptor IC 50
T2 sequence (P48546 22-466): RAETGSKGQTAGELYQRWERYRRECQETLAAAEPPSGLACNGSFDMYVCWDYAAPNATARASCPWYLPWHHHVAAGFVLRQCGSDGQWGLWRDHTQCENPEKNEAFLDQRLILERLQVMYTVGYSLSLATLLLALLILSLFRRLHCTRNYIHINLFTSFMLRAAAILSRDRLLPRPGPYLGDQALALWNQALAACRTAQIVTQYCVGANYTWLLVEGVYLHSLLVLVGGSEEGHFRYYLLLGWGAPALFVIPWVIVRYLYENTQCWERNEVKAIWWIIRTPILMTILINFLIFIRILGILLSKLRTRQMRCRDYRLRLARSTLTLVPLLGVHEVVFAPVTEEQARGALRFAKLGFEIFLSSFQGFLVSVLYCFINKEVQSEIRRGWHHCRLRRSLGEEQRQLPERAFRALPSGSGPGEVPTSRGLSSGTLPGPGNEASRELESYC

[4] = test system: mice fed a Gubra amylin NASH (GAN) diet; experiment: Biological effects in GAN diet-induced NASH mice; type: in vivo; details: after two weeks; for Gal-3 Relative / Gal-3 Total: liver Galectin-3, histological quantitative assessment; for α-SMA Relative / α-SMA Total: liver alpha-smooth muscle actin, histological quantitative assessment; for TG Relative / TG Total: liver triglycerides
Description: NASH was induced in mice by feeding mice a Gubra amylin NASH (GAN) diet as described in Boland et al. World J Gastroenterol. 2019, 25(33): 4904-4920. One week prior to administration of a first dose of compounds, the mice were weighed and randomized, and their food intake was measured. Mice were randomly assigned to dosing groups, with twelve mice per group. […] Compound dose titration (nmol/kg): 0.6 (day 0), 1.2 (day 1), 2.4 (day 2), 4.8 (day 3), 4.8 (day 4), 12 (day 5), 30.0 (from day 6).
After two weeks, animals were sacrificed. Plasma enzymes (P-ALT (alanine aminotransferase) and P-AST (aspartate aminotransferase)), total plasma triglycerides, and total plasma cholesterol were measured, and terminal necropsy of each liver was carried out, determining relative liver weight as a percentage of body weight, assaying total liver biochemistry including total liver triglycerides, plasma insulin and total liver cholesterol, as well as histological evaluation of Galectin-3, and alpha-smooth muscle actin.

[5] = target: T1, GLP-1 receptor; experiment: HSA modulated binding assay, GLP-1 receptor; details: binding with 2% HSA to binding with 0% HSA
[6] = target: T2, GIP receptor; experiment: HSA modulated binding assay, GIP receptor; details: binding with 2% HSA to binding with 0% HSA

T1 sequence (P43220 24-463): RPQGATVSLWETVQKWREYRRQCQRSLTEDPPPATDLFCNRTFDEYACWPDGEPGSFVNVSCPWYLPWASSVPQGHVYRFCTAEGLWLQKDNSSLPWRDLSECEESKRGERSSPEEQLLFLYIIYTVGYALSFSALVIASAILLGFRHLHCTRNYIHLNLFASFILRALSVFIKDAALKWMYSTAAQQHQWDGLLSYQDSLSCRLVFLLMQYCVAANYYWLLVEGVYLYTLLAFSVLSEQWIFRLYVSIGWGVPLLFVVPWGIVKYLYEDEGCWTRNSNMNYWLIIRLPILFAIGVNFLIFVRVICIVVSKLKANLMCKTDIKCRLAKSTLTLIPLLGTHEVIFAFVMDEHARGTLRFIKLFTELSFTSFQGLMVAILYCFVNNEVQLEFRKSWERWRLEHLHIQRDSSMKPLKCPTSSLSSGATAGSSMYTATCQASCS

Compound | AUC(0-inf) [1] [µg·h/mL] | AUC(0-t) [1] [µg·h/mL] | CL/F [1] [mL/day/kg] | Cmax [1] [ng/mL] | Tmax [1] [h] | Vd/F [1] [L/kg] | half-life [1] [h] | IC50 [2] [nM] | IC50 [3] [nM] | liver Galectin-3 compared to tirzepatide or vehicle (in words) [4] | liver alpha-smooth muscle actin compared to tirzepatide (in words) [4] | liver triglycerides compared to tirzepatide or vehicle (in words) [4] | Gal-3 Relative [4] [percent fractional area] | Gal-3 Total [4] [mg] | α-SMA Relative [4] [percent fractional area] | α-SMA Total [4] [mg] | TG Relative [4] [mg per/g liver] | TG Total [4] [mg per/liver] | GLP-1 receptor Ratio of HSA/No HSA [5] | GIP receptor Ratio of HSA/No HSA [6]
CC[C@H](C)[C@H](NC(=O)[C@H](CC(C)C)NC(=O)[C@H](Cc1c[nH]c2ccccc12)NC(=O)[C@H](CCC(N)=O)NC(=O)[C@@H](NC(=O)[C@H](Cc1ccccc1)NC(=O)[C@H](C)NC(=O)[C@H](CCC(N)=O)NC(=O)[C@H](CCC(N)=O)NC(=O)[C@H](C)NC(=O)[C@@H](NC(=O)[C@H](CCCCNC(=O)COCCOCCNC(=O)COCCOCCNC(=O)CC[C@H](NC(=O)CCCCCCCCCCCCCCCCCCP(=O)(O)O)C(=O)O)NC(=O)[C@H](CC(=O)O)NC(=O)[C@H](CC(C)C)NC(=O)C(C)(C)NC(=O)[C@@H](NC(=O)[C@H](CO)NC(=O)[C@H](Cc1ccc(O)cc1)NC(=O)[C@H](CC(=O)O)NC(=O)[C@H](CO)NC(=O)[C@@H](NC(=O)[C@H](Cc1ccccc1)NC(=O)[C@@H](NC(=O)CNC(=O)[C@H](CCC(=O)O)NC(=O)C(C)(C)NC(=O)[C@@H](N)Cc1ccc(O)cc1)[C@@H](C)O)[C@@H](C)O)[C@@H](C)CC)[C@@H](C)CC)C(C)C)C(=O)N[C@@H](C)C(=O)NCC(=O)NCC(=O)N1CCC[C@H]1C(=O)N[C@@H](CO)C(=O)N[C@@H](CO)C(=O)NCC(=O)N[C@@H](C)C(=O)N1CCC[C@H]1C(=O)N1CCC[C@H]1C(=O)N1CCC[C@H]1C(=O)N[C@@H](CO)C(N)=O [Compound 15] (H-Y[Aib]EGTFTSDYSI[Aib]LDK([AEEA-AEEA-γGlu-Nonadecanoyl(19-PO3H2)])IAQQAFVQWLIAGGPSSGAPPPS-NH2) | 227 | 221 | 21.4 | 2260 | 18.7 | 0.114 | 89.3 |  |  |  |  |  |  |  |  |  |  |  |  | 
CC[C@H](C)[C@H](NC(=O)[C@H](CC(C)C)NC(=O)[C@H](Cc1c[nH]c2ccccc12)NC(=O)[C@H](CCC(N)=O)NC(=O)[C@@H](NC(=O)[C@H](Cc1ccccc1)NC(=O)[C@H](C)NC(=O)[C@H](CCCCNC(=O)COCCOCCNC(=O)COCCOCCNC(=O)CC[C@H](NC(=O)CCCCCCCCCCCCCCCCCCC(=O)O)P(=O)(O)O)NC(=O)[C@H](CCC(N)=O)NC(=O)[C@H](C)NC(=O)[C@@H](NC(=O)[C@H](CCCCN)NC(=O)[C@H](CC(=O)O)NC(=O)[C@H](CC(C)C)NC(=O)C(C)(C)NC(=O)[C@@H](NC(=O)[C@H](CO)NC(=O)[C@H](Cc1ccc(O)cc1)NC(=O)[C@H](CC(=O)O)NC(=O)[C@H](CO)NC(=O)[C@@H](NC(=O)[C@H](Cc1ccccc1)NC(=O)[C@@H](NC(=O)CNC(=O)[C@H](CCC(=O)O)NC(=O)C(C)(C)NC(=O)[C@@H](N)Cc1ccc(O)cc1)[C@@H](C)O)[C@@H](C)O)[C@@H](C)CC)[C@@H](C)CC)C(C)C)C(=O)N[C@@H](C)C(=O)NCC(=O)NCC(=O)N1CCC[C@H]1C(=O)N[C@@H](CO)C(=O)N[C@@H](CO)C(=O)NCC(=O)N[C@@H](C)C(=O)N1CCC[C@H]1C(=O)N1CCC[C@H]1C(=O)N1CCC[C@H]1C(=O)N[C@@H](CO)C(N)=O [Compound 8] |  |  |  |  |  |  |  | 288 | 223 | lower relative and total liver Galectin-3 as compared to administration of tirzepatide or vehicle alone | lower relative and total liver alpha-smooth muscle actin as compared to administration of tirzepatide | lower relative and total liver triglycerides as compared to administration of tirzepatide or vehicle alone | 5.8 ± 0.6 | 117 ± 12 | 4.3 ± 0.5 | 83 ± 8 | 40 ± 3 | 75 ± 7 |  | 
CC[C@H](C)[C@H](NC(=O)[C@H](CC(C)C)NC(=O)[C@H](Cc1c[nH]c2ccccc12)NC(=O)[C@H](CCC(N)=O)NC(=O)[C@@H](NC(=O)[C@H](Cc1ccccc1)NC(=O)[C@H](C)NC(=O)[C@H](CCCCNC(=O)COCCOCCNC(=O)COCCOCCNC(=O)CC[C@H](NC(=O)CCCCCCCCCCCCCCCCCCP(=O)(O)OCc1ccccc1)P(=O)(O)O)NC(=O)[C@H](CCC(N)=O)NC(=O)[C@H](C)NC(=O)[C@@H](NC(=O)[C@H](CCCCN)NC(=O)[C@H](CC(=O)O)NC(=O)[C@H](CC(C)C)NC(=O)C(C)(C)NC(=O)[C@@H](NC(=O)[C@H](CO)NC(=O)[C@H](Cc1ccc(O)cc1)NC(=O)[C@H](CC(=O)O)NC(=O)[C@H](CO)NC(=O)[C@@H](NC(=O)[C@H](Cc1ccccc1)NC(=O)[C@@H](NC(=O)CNC(=O)[C@H](CCC(=O)O)NC(=O)C(C)(C)NC(=O)[C@@H](N)Cc1ccc(O)cc1)[C@@H](C)O)[C@@H](C)O)[C@@H](C)CC)[C@@H](C)CC)C(C)C)C(=O)N[C@@H](C)C(=O)NCC(=O)NCC(=O)N1CCC[C@H]1C(=O)N[C@@H](CO)C(=O)N[C@@H](CO)C(=O)NCC(=O)N[C@@H](C)C(=O)N1CCC[C@H]1C(=O)N1CCC[C@H]1C(=O)N1CCC[C@H]1C(=O)N[C@@H](CO)C(N)=O [Compound 12] |  |  |  |  |  |  |  |  |  | lower relative and total liver Galectin-3 as compared to administration of tirzepatide or vehicle alone | lower relative and total liver alpha-smooth muscle actin as compared to administration of tirzepatide | lower relative and total liver triglycerides as compared to administration of tirzepatide or vehicle alone | 5.7 ± 0.5 | 113 ± 10 | 4.4 ± 0.6 | 84 ± 8 | 35 ± 3 | 63 ± 5 | 5.26 | 1.70
CC[C@H](C)[C@H](NC(=O)[C@H](CC(C)C)NC(=O)[C@H](Cc1c[nH]c2ccccc12)NC(=O)[C@H](CCC(N)=O)NC(=O)[C@@H](NC(=O)[C@H](Cc1ccccc1)NC(=O)[C@H](C)NC(=O)[C@H](CCCCNC(=O)COCCOCCNC(=O)COCCOCCNC(=O)CC[C@H](NC(=O)CCCCCCCCCCCCCCCCCCP(=O)(O)O)C(=O)O)NC(=O)[C@H](CCC(N)=O)NC(=O)[C@H](C)NC(=O)[C@@H](NC(=O)[C@H](CCCCN)NC(=O)[C@H](CC(=O)O)NC(=O)[C@H](CC(C)C)NC(=O)C(C)(C)NC(=O)[C@@H](NC(=O)[C@H](CO)NC(=O)[C@H](Cc1ccc(O)cc1)NC(=O)[C@H](CC(=O)O)NC(=O)[C@H](CO)NC(=O)[C@@H](NC(=O)[C@H](Cc1ccccc1)NC(=O)[C@@H](NC(=O)CNC(=O)[C@H](CCC(=O)O)NC(=O)C(C)(C)NC(=O)[C@@H](N)Cc1ccc(O)cc1)[C@@H](C)O)[C@@H](C)O)[C@@H](C)CC)[C@@H](C)CC)C(C)C)C(=O)N[C@@H](C)C(=O)NCC(=O)NCC(=O)N1CCC[C@H]1C(=O)N[C@@H](CO)C(=O)N[C@@H](CO)C(=O)NCC(=O)N[C@@H](C)C(=O)N1CCC[C@H]1C(=O)N1CCC[C@H]1C(=O)N1CCC[C@H]1C(=O)N[C@@H](CO)C(N)=O [Compound 14] | 179 | 178 | 28.6 | 1430 | 24 | 0.104 | 60.9 |  |  |  |  |  |  |  |  |  |  |  |  | 
CC[C@H](C)[C@H](NC(=O)[C@H](CC(C)C)NC(=O)[C@H](Cc1c[nH]c2ccccc12)NC(=O)[C@H](CCC(N)=O)NC(=O)[C@@H](NC(=O)[C@H](Cc1ccccc1)NC(=O)[C@H](C)NC(=O)[C@H](CCCCNC(=O)COCCOCCNC(=O)COCCOCCNC(=O)CC[C@H](NC(=O)CCCCCCCCCCCCCCCCCCP(=O)(O)O)C(=O)O)NC(=O)[C@H](CCC(N)=O)NC(=O)[C@H](C)NC(=O)[C@@H](NC(=O)[C@H](CCCCN)NC(=O)[C@H](CC(=O)O)NC(=O)[C@H](CC(C)C)NC(=O)C(C)(C)NC(=O)[C@@H](NC(=O)[C@H](CO)NC(=O)[C@H](Cc1ccc(O)cc1)NC(=O)[C@H](CC(=O)O)NC(=O)[C@H](CO)NC(=O)[C@@H](NC(=O)[C@H](Cc1ccccc1)NC(=O)[C@@H](NC(=O)CNC(=O)[C@H](CCC(=O)O)NC(=O)C(C)(C)NC(=O)[C@@H](N)Cc1ccc(O)cc1)[C@@H](C)O)[C@@H](C)O)[C@@H](C)CC)C(C)C)C(C)C)C(=O)N[C@@H](CCCNC(=N)N)C(=O)NCC(=O)NCC(=O)N1CCC[C@H]1C(=O)N[C@@H](CO)C(=O)N[C@@H](CO)C(=O)NCC(=O)N[C@@H](C)C(=O)N1CCC[C@H]1C(=O)N1CCC[C@H]1C(=O)N1CCC[C@H]1C(=O)N[C@@H](CO)C(N)=O [Compound 17] (H-Y[Aib]EGTFTSDYSI[Aib]LDKVAQK([AEEA-AEEA-γGlu-Nonadecanoyl(19-PO3H2)])AFVQWLIRGGPSSGAPPPS-NH2) | 346 | 316 | 14.2 | 1980 | 28 | 0.113 | 134 |  |  |  |  |  |  |  |  |  |  |  |  | 
